30 molecules from patent US12552771B2, “Carboxylic acid containing azetidinyl compounds for the treatment of neurodegenerative diseases” (Celgene Corporation, priority 2021, dated 2026) can be followed below.

T1 sequence (Q9H228 whole entry): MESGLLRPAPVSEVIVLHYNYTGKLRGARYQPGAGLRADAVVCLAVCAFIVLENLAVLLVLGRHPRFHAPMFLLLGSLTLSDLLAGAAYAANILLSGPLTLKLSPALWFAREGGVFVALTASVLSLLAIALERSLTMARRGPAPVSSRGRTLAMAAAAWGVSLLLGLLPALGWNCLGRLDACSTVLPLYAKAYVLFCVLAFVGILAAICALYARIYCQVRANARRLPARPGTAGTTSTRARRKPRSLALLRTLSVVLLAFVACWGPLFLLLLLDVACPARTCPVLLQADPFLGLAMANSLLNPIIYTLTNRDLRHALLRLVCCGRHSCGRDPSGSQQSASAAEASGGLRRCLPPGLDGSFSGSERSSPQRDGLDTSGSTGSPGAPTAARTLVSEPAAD

This test has as its target T1, S1P5 receptors (Homo sapiens, UniProt Q9H228).
T1 construct: expressed in transfected cells; host or cells: CHO cells (membranes)
In words: [35S]-GTPγS binding assay with CHO-S1P5 receptor membranes. The format is biochemical. The following applies: membranes of CHO cells expressing recombinant S1P5 receptors; measure of S1P5 agonism. Here is the method: CHO cells expressing recombinant S1P5 receptors were cultured in 500 cm^2 culture trays and, once confluent, rinsed and detached with cell-lifting buffer (10 mM HEPES, 154 mM NaCl, 6.85 mM EDTA, pH 7.4). Cells were then pelleted by centrifugation, resuspended, and homogenized in membrane preparation buffer (10 mM HEPES and 10 mM EDTA, pH 7.4) using a Polytron PT 1200E homogenizer (Kinematica, Luzern, Switzerland). Cellular proteins were pelleted by centrifugation at 48,000×g at 4° C. for 30 minutes. The resulting supernatant was discarded, and the pellet was re-suspended again in membrane preparation buffer, homogenized for a second time, and then centrifuged again as described above. The final cellular protein pellet was suspended in ice cold resuspension buffer (10 mM HEPES and 0.1 mM EDTA, pH 7.4), divided into aliquots, and stored at −80° C. until use.
Functional binding assays for [^35]-GTPγS were performed in 96-well non-binding surface plates with a final volume of 200 μL. The test compounds were serially diluted in DMSO and added to assay plates using a Tecan D300E digital printer with a total volume of […]. The control sphingosine-1-phosphate (SiP) was prepared separately by preparing a 400 μM stock solution from a 100 nmol pellet of SiP in 10 mM Na2CO3 with 2% […]. The serial dilution of SiP was done using complete assay buffer (20 mM HEPES, 10 mM MgCl2, 100 mM NaCl, 1 mM EDTA, 0.1% fatty acid free bovine serum albumin (BSA), and 30 μg/mL saponin, pH 7.4) and transferred to wells already containing 0.4 μL DMSO. All the wells were then loaded to a total volume of 40 μL of complete assay buffer, except the non-specific binding (NSB) wells. For NSB wells, 40 μL/well of 50 μM GTPγS (Sigma Aldrich, cat #G8634, St. Louis, MO) was added to wells containing 0.4 μL of DMSO. The assay was started by the addition of 120 μL/well of CHO-S1P receptor membrane solution containing 40 μg/mL of membrane protein, 16.67 μM guanosine diphosphate (GDP; Sigma Aldrich, cat #G7127, St. Louis, MO), and 2.5 mg/mL of WGA PVT SPA beads in complete buffer. Assay plates were then sealed and incubated at room temperature with gentle agitation for 30 minutes. Next, 40 μL/well of 1 nM of [^35]-GTPγS (PerkinElmer, cat #NEG030X250UC, Waltham, MA) in basic assay buffer (20 mM HEPES, 10 mM MgCl2, 100 mM NaCl, and 1 mM EDTA, pH7.4) was added to the assay plates to yield a final concentration of 200 pM and the plates were further incubated for 40 minutes at room temperature with gentle agitation. The assay was terminated by centrifugation of the plates at 1000 rpm for 3 minutes using an Eppendorf 5810R centrifuge (Eppendorf, Hamburg, Germany) and G protein bound radioactivity was quantitated using a MicroBeta2 microplate scintillation counter (PerkinElmer, Waltham, MA). As G protein bound radioactivity directly correlates to receptor activation and coupling to the G protein, this assay is a measure of S1P5 agonism.
In the case of `O=C(O)C1CCN(Cc2ccc(C3CN(c4c(Cl)cccc4Cl)C3)cn2)CC1` [Compound 18, 1-((5-(1-(2,6-dichlorophenyl)azetidin-3-yl)pyridin-2-yl)methyl)piperidine-4-carboxylic acid], the 50% effective concentration (EC50) lay in the range of 0.1 to 1 µM. As for `Cc1cc(C2CN(c3c(Cl)cccc3Cl)C2)c(C)cc1CN1CCC(C(=O)O)CC1` [Compound 19, 1-(4-(1-(2,6-dichlorophenyl)azetidin-3-yl)-2,5-dimethylbenzyl)piperidine-4-carboxylic acid], the figure is not above 0.01 µM; as for `Cc1cc(CN2CCC(C(=O)O)CC2)cc(C)c1C1CN(c2c(Cl)cccc2Cl)C1` [Compound 20, 1-(4-(1-(2,6-dichlorophenyl)azetidin-3-yl)-3,5-dimethylbenzyl)piperidine-4-carboxylic acid], not above 0.01 µM; as for `O=C(O)C1CCN(Cc2ccc(C3CN(c4c(Cl)cccc4Cl)C3)nc2)CC1` [Compound 21, 1-((6-(1-(2,6-dichlorophenyl)azetidin-3-yl)pyridin-3-yl)methyl)piperidine-4-carboxylic acid], 0.01 to 0.1 µM. As for `O=C(O)C1CCN(Cc2ccc(C3CN(c4c(Cl)cccc4Cl)C3)c(F)c2)CC1` [Compound 22, 1-(4-(1-(2,6-dichlorophenyl)azetidin-3-yl)-3-fluorobenzyl)piperidine-4-carboxylic acid], the figure is not above 0.01 µM; as for `O=C(O)C1CCN(Cc2ccc(C3CN(c4c(Cl)cccc4Cl)C3)cc2F)CC1` [Compound 23, 1-(4-(1-(2,6-dichlorophenyl)azetidin-3-yl)-2-fluorobenzyl)piperidine-4-carboxylic acid], not above 0.01 µM. As for `O=C(O)C1CCN(Cc2ccc(N3CC(c4c(Cl)cccc4Cl)C3)cc2)CC1` [Compound 24, 1-(4-(3-(2,6-dichlorophenyl)azetidin-1-yl)benzyl)piperidine-4-carboxylic acid], the figure is 0.01 to 0.1 µM. As for `O=C(O)C1CCN(Cc2ccc(N3CC(c4c(F)cccc4F)C3)cc2)CC1` [Compound 27, 1-(4-(3-(2,6-difluorophenyl)azetidin-1-yl)benzyl)piperidine-4-carboxylic acid], the EC50 lay in the range of 0.1 to 1 µM. As for `Cc1cc(N2CC(c3c(Cl)cccc3Cl)C2)cc(C)c1CN1CCC(C(=O)O)CC1` [Compound 28, 1-(4-(3-(2,6-dichlorophenyl)azetidin-1-yl)-2,6-dimethylbenzyl)piperidine-4-carboxylic acid], the figure is not above 0.01 µM; as for `O=C(O)C1CCN(Cc2ccc(N3CC(c4c(Cl)cccc4Cl)C3)cn2)CC1` [Compound 29, 1-((5-(3-(2,6-dichlorophenyl)azetidin-1-yl)pyridin-2-yl)methyl)piperidine-4-carboxylic acid], 0.01 to 0.1 µM. As for `Cc1cc(N2CC(c3c(Cl)cccc3Cl)C2)c(C)cc1CN1CCC(C(=O)O)CC1` [Compound 30, 1-(4-(3-(2,6-dichlorophenyl)azetidin-1-yl)-2,5-dimethylbenzyl)piperidine-4-carboxylic acid], the figure is not above 0.01 µM. As for `Cc1cc(CN2CCC(C(=O)O)CC2)cc(C)c1N1CC(c2c(Cl)cccc2Cl)C1` [Compound 31, 1-(4-(3-(2,6-dichlorophenyl)azetidin-1-yl)-3,5-dimethylbenzyl)piperidine-4-carboxylic acid], the figure is not above 0.01 µM; as for `O=C(O)C1CCN(Cc2ccc(N3CC(c4c(Cl)cccc4Cl)C3)nc2)CC1` [Compound 32, 1-((6-(3-(2,6-dichlorophenyl)azetidin-1-yl)pyridin-3-yl)methyl)piperidine-4-carboxylic acid], 0.01 to 0.1 µM.

With `O=C(O)C1CCN(Cc2ccc(N3CC(c4c(Cl)cccc4Cl)C3)cc2F)CC1` [Compound 33, 1-(4-(3-(2,6-dichlorophenyl)azetidin-1-yl)-2-fluorobenzyl)piperidine-4-carboxylic acid], the EC50 lay within 0.01 to 0.1 µM.

Regarding `O=C(O)C1CCN(Cc2ccc(N3CC(c4c(Cl)cccc4Cl)C3)c(F)c2)CC1` [Compound 34, 1-(4-(3-(2,6-dichlorophenyl)azetidin-1-yl)-3-fluorobenzyl)piperidine-4-carboxylic acid], the EC50 was not above 0.01 µM. Take `O=C(O)C1CCN(Cc2ccc(N3CC(F)(c4c(Cl)cccc4Cl)C3)cc2)CC1` [Compound 35, 1-(4-(3-(2,6-dichlorophenyl)-3-fluoroazetidin-1-yl)benzyl)piperidine-4-carboxylic acid]: the concentration for a half-maximal effect (EC50) was in the range of 1 to 10 µM. As for `Cc1cc(CN2CCC(C(=O)O)CC2)cc(C)c1N1CC(F)(c2c(Cl)cccc2Cl)C1` [Compound 36, 1-(4-(3-(2,6-dichlorophenyl)-3-fluoroazetidin-1-yl)-3,5-dimethylbenzyl)-piperidine-4-carboxylic acid], the figure is 0.01 to 0.1 µM; as for `Cc1cc(N2CC(F)(c3c(Cl)cccc3Cl)C2)cc(C)c1CN1CCC(C(=O)O)CC1` [Compound 37, 1-(4-(3-(2,6-dichlorophenyl)-3-fluoroazetidin-1-yl)-2,6-dimethylbenzyl)-piperidine-4-carboxylic acid], 0.01 to 0.1 µM; as for `O=C(O)C1CCN(Cc2ccc(C3CN(c4ccccc4)C3)cc2)CC1` [Compound 39, 1-(4-(1-phenylazetidin-3-yl)benzyl)piperidine-4-carboxylic acid], 1 to 10 µM. As for `O=C(O)C1CCN(Cc2ccc(C3CN(c4ccccc4F)C3)cc2)CC1` [Compound 40, 1-(4-(1-(2-fluorophenyl)azetidin-3-yl)benzyl)piperidine-4-carboxylic acid], the figure is 0.1 to 1 µM; as for `O=C(O)C1CCN(Cc2ccc(C3CN(c4cccc(F)c4)C3)cc2)CC1` [Compound 41, 1-(4-(1-(3-fluorophenyl)azetidin-3-yl)benzyl)piperidine-4-carboxylic acid], 1 to 10 µM.

As for `O=C(O)C1CCN(Cc2ccc(C3CN(c4ccc(C5CC5)c(Cl)c4)C3)cc2)CC1` [Compound 42, 1-(4-(1-(3-chloro-4-cyclopropylphenyl)azetidin-3-yl)benzyl)piperidine-4-carboxylic acid], the EC50 was 0.1 to 1 µM.

Regarding `O=C(O)C1CCN(Cc2ccc(C3CN(c4ccc(C5CC5)cc4)C3)cc2)CC1` [Compound 43, 1-(4-(1-(4-cyclopropylphenyl)azetidin-3-yl)benzyl)piperidine-4-carboxylic acid], the EC50 was 1 to 10 µM.

Take `Cc1cc(C2CN(c3c(F)cccc3F)C2)cc(C)c1CN1CCC(C(=O)O)CC1` [Compound 44, 1-(4-(1-(2,6-difluorophenyl)azetidin-3-yl)-2,6-dimethylbenzyl)piperidine-4-carboxylic acid]: the half-maximal effective concentration (EC50) fell in the range of 0.01 to 0.1 µM. Turning to `Cc1cc(C2CN(c3ccccc3)C2)cc(C)c1CN1CCC(C(=O)O)CC1` [Compound 45, 1-(2,6-dimethyl-4-(1-phenylazetidin-3-yl)benzyl)piperidine-4-carboxylic acid], the EC50 lay in the range of 0.1 to 1 µM. Under `Cc1cc(C2CN(c3ccccc3F)C2)cc(C)c1CN1CCC(C(=O)O)CC1` [Compound 46, 1-(4-(1-(2-fluorophenyl)azetidin-3-yl)-2,6-dimethylbenzyl)piperidine-4-carboxylic acid] stands 0.01 to 0.1 µM; under `Cc1cc(C2CN(c3cccc(F)c3)C2)cc(C)c1CN1CCC(C(=O)O)CC1` [Compound 47, 1-(4-(1-(3-fluorophenyl)azetidin-3-yl)-2,6-dimethylbenzyl)piperidine-4-carboxylic acid], 0.1 to 1 µM; under `Cc1cc(C2CN(c3ccc(C4CC4)cc3)C2)cc(C)c1CN1CCC(C(=O)O)CC1` [Compound 48, 1-(4-(1-(4-cyclopropylphenyl)azetidin-3-yl)-2,6-dimethylbenzyl)piperidine-4-carboxylic acid], 1 to 10 µM. As for `Cc1cc(C2CN(c3ccc(C4CC4)c(Cl)c3)C2)cc(C)c1CN1CCC(C(=O)O)CC1` [Compound 49, 1-(4-(1-(3-chloro-4-cyclopropylphenyl)azetidin-3-yl)-2,6-dimethylbenzyl)-piperidine-4-carboxylic acid], the figure is 0.1 to 1 µM; as for `Cc1cc(C2CN(c3c(Cl)cccc3Cl)C2)cc(F)c1CN1CCC(C(=O)O)CC1` [Compound 50, 1-(4-(1-(2,6-dichlorophenyl)azetidin-3-yl)-2-fluoro-6-methylbenzyl)-piperidine-4-carboxylic acid], not above 0.01 µM.
